From US8394783B2, “Polysaccharide gel formulation having multi-stage bioactive agent delivery” (Allergan, Inc., priority 2007, dated 2013)

How the values were obtained:
[1] = tested on: Hyaluronidase; experiment: Enzymatic degradation study (Morgan-Elson colorimetric assay); format: biochemical; details: generally an order of magnitude less TA gives the same inhibition as CSA
Protocol: The HA filling gels prepared in Examples 1 and 2, were evaluated for resistance to enzymatic degradation using the Morgan-Elson colorimetric assay. This assay was applied to estimate the extend of enzymatic degradation by measuring changes in the molecular weight of the HA chains.
Hyaluronidase (0.1-10 mg) was added to each HA formulation, incubated for 10-250 mins at 37° C. followed by addition of 0.1 mL of a 0.8 M potassium tetraborate solution and heating at 100° C. for 10 min. The samples were supplemented with 3 mL of a 10% (wt) p-dimethylaminobenzaldehyde solution in acetic acid and incubated at 37° C. for 10-120 mins. The process was repeated for each HA formulation, omitting the enzyme addition, to prepare a control sample. The change in the optical density (OD) at 585 nm between the enzymatically degraded sample and the control sample was used to quantify the extent of degradation for each formulation.

[2] = tested on: Hyaluronidase; experiment: Enzymatic degradation study (SEC-MALS soluble HA assay); format: biochemical
From the text: The HA filling gels prepared in Examples 1 and 2, were further evaluated for resistance to enzymatic degradation by using a SEC-MALS (Size Exclusion Multi-Angle Light Scattering) based soluble HA assay. This assay was applied to quantify degradation by evaluating the soluble HA content in each sample (defined as the portion of the gel that can pass through a 0.2-1.0 μm filter). The difference in the soluble HA content, between an enzymatically degraded sample and a control sample was used to quantify the extent of degradation for each HA formulation.
The SEC-MALS tests were performed using an Agilent size exclusion chromatography system equipped with Wyatt light scattering and refractive index units. Hyaluronidase (0.1-10 mg) was added to each HA formulation, incubated for 10-250 mins at 37° C. followed by addition of 0.1 ml of a 0.8 M potassium tetraborate solution and heating at 100° C. for 10 mins. The samples were diluted in PBS, filtered through a 0.2-1.0 μm filter and injected into the SEC-MALS system. The process was repeated for each HA formulation, omitting the enzyme addition, to prepare a control sample. The soluble HA content of the enzymatically degraded sample, the control sample as well as the difference between the two is summarized in FIG. 3.

- inhibitory activity of TA compared with CSA [1]: higher inhibitory activity than CSA
- inhibitory activity of TA compared with CSA [2]: significantly higher than that of CSA
Compound: O=C(OC[C@H]1O[C@@H](OC(=O)c2cc(O)c(O)c(OC(=O)c3cc(O)c(O)c(O)c3)c2)[C@H](OC(=O)c2cc(O)c(O)c(OC(=O)c3cc(O)c(O)c(O)c3)c2)[C@@H](OC(=O)c2cc(O)c(O)c(OC(=O)c3cc(O)c(O)c(O)c3)c2)[C@@H]1OC(=O)c1cc(O)c(O)c(OC(=O)c2cc(O)c(O)c(O)c2)c1)c1cc(O)c(O)c(OC(=O)c2cc(O)c(O)c(O)c2)c1 [TA, tannic acid]
